According to patent US20250042889A1, “3CLPRO PROTEASE INHIBITOR” (SHANGHAI QILU PHARMACEUTICAL RESEARCH AND DEVELOPMENT …, priority 2021, published 2025):

Molecular target: SARS-COV-2 3CLpro/Mpro protease (Severe acute respiratory syndrome coronavirus 2 (2019-nCoV) (SARS-CoV-2), UniProt P0DTD1)
Experiment: Inhibitory effect on SARS-COV-2 3CLpro/Mpro protease by fluorescence resonance energy transfer
Type: biochemical
Settings: activity intervals A-D, read-out: IC50 (nM), Inhibition on SARS-CoV-2 3CLpro/Mpro protease

Compound | IC50
C[C@@H]1CN(C(=O)c2cc(Br)cc([N+](=O)[O-])c2N[C@@H]2CCCN(C(=O)c3cc(=O)[nH]c4ccccc34)C2)C[C@H](C)O1 [Example 133] | 10 to 50 nM
O=C(c1cc(Br)cc([N+](=O)[O-])c1N[C@@H]1CCCN(C(=O)c2cc(=O)[nH]c3ccccc23)C1)N1CCC(N2CCOCC2)CC1 [Example 134] | 10 to 50 nM
C[C@@H]1CN(C(=O)c2cc(Br)cc([N+](=O)[O-])c2N[C@@H]2CCCN(C(=O)c3cncc4cc(Cl)ccc34)C2)C[C@H](C)N1 [Example 135] | 10 to 50 nM
O=C(N[C@H]1CCCC[C@H]1Nc1c(C(=O)N2CCC(N3CCOCC3)CC2)cc(Br)cc1[N+](=O)[O-])c1cc(=O)[nH]c2ccccc12 [Example 136] | < 10 nM
O=C(NN1CCOCC1)c1cc(Br)cc([N+](=O)[O-])c1N[C@@H]1CCCN(C(=O)c2cncc(I)c2)C1 [Example 137] | 10 to 50 nM
O=C(c1cc(Br)cc([N+](=O)[O-])c1N[C@@H]1CCCN(C(=O)c2cc(=O)[nH]c3ccccc23)C1)N1CCN(CC(F)(F)F)CC1 [Example 138] | 10 to 50 nM
C[C@@H]1CN(C(=O)c2cc(Br)cc([N+](=O)[O-])c2N[C@@H]2CCCN(C(=O)c3cc(=O)[nH]c4ccccc34)C2)C[C@H](C)N1 [Example 139] | 10 to 50 nM
C[C@@H]1CN(C(=O)c2cc(Br)cc([N+](=O)[O-])c2N[C@@H]2CCCN(C(=O)c3cc(=O)[nH]c4ccccc34)C2)CCO1 [Example 140] | 10 to 50 nM
N[C@@H]1C[C@H](O)CN(C(=O)c2cc(Br)cc([N+](=O)[O-])c2N[C@@H]2CCCC[C@@H]2NC(=O)c2cncc3ccccc23)C1 [Example 141] | 10 to 50 nM
O=C(c1cc(Br)cc([N+](=O)[O-])c1N[C@@H]1CCCN(C(=O)C2CNCc3ccccc32)C1)N1CCOCC1 (some centres unmarked) [Example 142] | 10 to 50 nM
O=C(N[C@H]1CCCC[C@H]1Nc1c(C(=O)N2CCNCC2)cc(Br)cc1C(F)(F)F)c1cncc2cc(Cl)ccc12 [Example 143] | 10 to 50 nM
C[C@@H]1CN(C(=O)c2cc(Br)cc([N+](=O)[O-])c2N[C@@H]2CCCN(C(=O)c3cncc4[nH]ncc34)C2)C[C@H](C)O1 [Example 144] | 10 to 50 nM
C[C@@H]1CN(C(=O)c2cc(Br)cc([N+](=O)[O-])c2N[C@@H]2CCCN(C(=O)C3CCCOC3)C2)C[C@H](C)O1 (some centres unmarked) [Example 145] | 10 to 50 nM
Cc1cc(C(=O)N2CCC[C@@H](Nc3c(C(=O)N4CCN(CC(F)(F)F)CC4)cc(Br)cc3[N+](=O)[O-])C2)cc(=O)[nH]1 [Example 146] | 10 to 50 nM
O=C(N[C@H]1CCCC[C@H]1Nc1c(C(=O)N2CCC(O)CC2)cc(Br)cc1C(F)(F)F)c1cncc2cc(Cl)ccc12 [Example 147] | 10 to 50 nM
Cc1cc(C(=O)N2CCC[C@@H](Nc3c(C(=O)N4CC5CC5C4)cc(Br)cc3[N+](=O)[O-])C2)cc(=O)[nH]1 (some centres unmarked) [Example 148] | 50 to 100 nM
Cc1cc(C(=O)N2CCC[C@@H](Nc3c(C(=O)N4CCCCC4)cc(Br)cc3[N+](=O)[O-])C2)cc(=O)[nH]1 [Example 149] | 10 to 50 nM
O=C(c1cc(Br)[nH]c(=O)c1)N1CCC[C@@H](Nc2c(C(=O)N3CCC(F)(F)CC3)cc(Br)cc2[N+](=O)[O-])C1 [Example 150] | 50 to 100 nM
C[C@@H]1CN(C(=O)c2cc(Br)cc([N+](=O)[O-])c2N[C@@H]2CCCN(C(=O)c3cncc4[nH]cnc34)C2)C[C@H](C)O1 [Example 151] | 10 to 50 nM
C[C@@H]1CN(C(=O)c2cc(Br)cc([N+](=O)[O-])c2N[C@@H]2CCOC[C@@H]2NC(=O)c2cncc3ccccc23)C[C@H](C)O1 [Example 152] | 10 to 50 nM

Compound | IC50
CNc1cncc(C(=O)N2C[C@H](Nc3c(C(=O)N4CCN(CCOC)CC4)cc(Br)cc3[N+](=O)[O-])C3(CC3)C2)c1 [Example 153] | 10 to 50 nM
Cc1cc(C(=O)N2CC(Nc3c(C(=O)N4CCC5(CCC5)CC4)cc(Br)cc3[N+](=O)[O-])C(F)(F)C2)cc(=O)[nH]1 (centres unmarked) [Example 154] | 50 to 100 nM
Cc1cc(C(=O)N2CC(Nc3c(C(=O)N4CCC(C)(C)CC4)cc(Br)cc3[N+](=O)[O-])C(F)(F)C2)cc(=O)[nH]1 (centres unmarked) [Example 155] | 50 to 100 nM
Cc1cc(C(=O)N2CC(Nc3c(C(=O)N4CCC5(CCCC5)CC4)cc(Br)cc3[N+](=O)[O-])C(F)(F)C2)cc(=O)[nH]1 (centres unmarked) [Example 156] | 10 to 50 nM
Cc1cc(C(=O)N2CC(Nc3c(C(=O)N4CCN(CC(F)(F)F)CC4)cc(Br)cc3[N+](=O)[O-])C(F)(F)C2)cc(=O)[nH]1 (centres unmarked) [Example 157] | 50 to 100 nM
O=C1C[C@H](C(=O)N2CCC[C@@H](Nc3c(C(=O)N4CCC5(CCCCC5)CC4)cc(Br)cc3[N+](=O)[O-])C2)CCN1 [Example 158] | 10 to 50 nM
Cc1cc(C(=O)N2CCC[C@@H](Nc3c(C(=O)N4CC(O)CC(Cl)C4)cc(Br)cc3[N+](=O)[O-])C2)cc(=O)[nH]1 (some centres unmarked) [Example 159] | < 10 nM
Cc1cc(C(=O)N2CC(Nc3c(C(=O)N4CCC5(CCCCC5)CC4)cc(Br)cc3[N+](=O)[O-])C(F)(F)C2)cc(=O)[nH]1 (centres unmarked) [Example 160] | 10 to 50 nM
CNc1cncc(C(=O)N2CC(Nc3c(C(=O)N4C[C@@H](C)O[C@@H](C)C4)cc(Br)cc3[N+](=O)[O-])C(F)(F)C2)c1 (some centres unmarked) [Example 161] | 10 to 50 nM
CNc1cncc(C(=O)N2C[C@H](Nc3c(C(=O)N4C[C@@H](C)O[C@@H](C)C4)cc(Br)cc3[N+](=O)[O-])C(C)(C)C2)c1 [Example 162] | 10 to 50 nM
CC(C)(C)C1CCN(C(=O)c2cc(Br)cc([N+](=O)[O-])c2N[C@@H]2CCCN(C(=O)[C@@H]3CCNC(=O)C3)C2)CC1 [Example 163] | 10 to 50 nM
C[C@@H]1CN(C(=O)c2cc(Br)cc([N+](=O)[O-])c2NC2CN(C(=O)c3cncc(I)c3)CC2(F)F)C[C@H](C)O1 (some centres unmarked) [Example 164] | 10 to 50 nM
O=C(c1cncc(I)c1)N1CC(Nc2c(C(=O)N3CCCCC3)cc(Br)cc2[N+](=O)[O-])C(F)(F)C1 (centres unmarked) [Example 165] | 10 to 50 nM
CNc1cncc(C(=O)N2CC(Nc3c(C(=O)N4CCC(C)(C)CC4)cc(Br)cc3[N+](=O)[O-])C(F)(F)C2)c1 (centres unmarked) [Example 166] | 10 to 50 nM
O=C(c1cncc(I)c1)N1CC(Nc2c(C(=O)N3CCOCC3)cc(Br)cc2[N+](=O)[O-])C(F)(F)C1 (centres unmarked) [Example 167] | 10 to 50 nM
CNc1cncc(C(=O)N2C[C@H](Nc3c(C(=O)N4CCCCC4)cc(Br)cc3[N+](=O)[O-])C(F)(F)C2)c1 [Example 168] | 10 to 50 nM
CC1(O)CCN(C(=O)c2cc(Br)cc(C(F)(F)F)c2N[C@@H]2CCCC[C@@H]2NC(=O)c2cncc3cc(Cl)ccc23)CC1 [Example 169] | 10 to 50 nM
CNc1cncc(C(=O)N2CC(Nc3c(C(=O)N4CCN(CC5CC5)CC4)cc(Br)cc3[N+](=O)[O-])C(F)(F)C2)c1 (centres unmarked) [Example 170] | 10 to 50 nM
CNc1cncc(C(=O)N2CC(Nc3c(C(=O)N4CCC5(CCCCC5)CC4)cc(Br)cc3[N+](=O)[O-])C(C)(C)C2)c1 (centres unmarked) [Example 171] | 10 to 50 nM
CNc1cncc(C(=O)N2CC(Nc3c(C(=O)N4CCN(C5CCCCC5)CC4)cc(Br)cc3[N+](=O)[O-])C(F)(F)C2)c1 (centres unmarked) [Example 172] | 10 to 50 nM

Compound | IC50
CNc1cncc(C(=O)N2CC(Nc3c(C(=O)N4CCC[C@H](C)C4)cc(Br)cc3[N+](=O)[O-])C(C)(C)C2)c1 (some centres unmarked) [Example 173] | 10 to 50 nM
CNc1cncc(C(=O)N2CC(Nc3c(C(=O)N4CCC[C@@H](C)C4)cc(Br)cc3[N+](=O)[O-])C(C)(C)C2)c1 (some centres unmarked) [Example 174] | 10 to 50 nM
CNc1cncc(C(=O)N2CC(Nc3c(C(=O)N4CCC(C)(C)CC4)cc(Br)cc3[N+](=O)[O-])C(C)(C)C2)c1 (centres unmarked) [Example 175] | 10 to 50 nM
CNc1cncc(C(=O)N2CC(Nc3c(C(=O)N4CCC5(CCCC5)CC4)cc(Br)cc3[N+](=O)[O-])C(C)(C)C2)c1 (centres unmarked) [Example 176] | 10 to 50 nM
CNc1cncc(C(=O)N2CC(Nc3c(C(=O)N4CCC5(CCC5)CC4)cc(Br)cc3[N+](=O)[O-])C(C)(C)C2)c1 (centres unmarked) [Example 177] | 10 to 50 nM
CNc1cncc(C(=O)N2CC(Nc3c(C(=O)N4C[C@@H](C)N(CCOC)[C@@H](C)C4)cc(Br)cc3[N+](=O)[O-])C(F)(F)C2)c1 (some centres unmarked) [Example 178] | 50 to 100 nM
CC1CC(C(=O)N2CCC[C@@H](Nc3c(C(=O)N4C[C@@H](C)O[C@@H](C)C4)cc(Br)cc3[N+](=O)[O-])C2)CC(=O)N1 (some centres unmarked) [Example 179] | 50 to 100 nM
CNc1cncc(C(=O)N2CC(Nc3c(C(=O)N4C[C@H](C)C[C@H](C)C4)cc(Br)cc3[N+](=O)[O-])C(C)(C)C2)c1 (some centres unmarked) [Example 180] | 50 to 100 nM
COCCN1CCN(C(=O)c2cc(Br)cc([N+](=O)[O-])c2NC2CN(C(=O)c3cncc(I)c3)CC2(F)F)CC1 (centres unmarked) [Example 181] | 10 to 50 nM
CNc1cncc(C(=O)N2C[C@H](Nc3c(C(=O)N4C[C@@H](C)O[C@@H](C)C4)cc(Br)cc3[N+](=O)[O-])C(F)(F)C2)c1 [Example 182] | 10 to 50 nM
O=C(c1cncc(Br)c1)N1C[C@H](Nc2c(C(=O)N3CCC(F)(F)CC3)cc(Br)cc2[N+](=O)[O-])C(F)(F)C1 [Example 183] | 10 to 50 nM
O=C(N[C@H]1CCOC[C@H]1Nc1c(C(=O)N2CCCCC2)cc(Br)cc1[N+](=O)[O-])c1cncc2cc(Cl)ccc12 [Example 184] | < 10 nM
O=C(N[C@H]1CCOC[C@H]1Nc1c(C(=O)N2CCC(F)(F)CC2)cc(Br)cc1[N+](=O)[O-])c1cncc2cc(Cl)ccc12 [Example 185] | 10 to 50 nM
CNc1cncc(C(=O)N2CC(Nc3c(C(=O)N4CCCCC4)cc(Br)cc3[N+](=O)[O-])C(C)(C)C2)c1 (centres unmarked) [Example 186] | 10 to 50 nM
CNc1cncc(C(=O)N2C[C@H](Nc3c(C(=O)N4C[C@@H](C)O[C@H](C)C4)cc(Br)cc3[N+](=O)[O-])C(C)(C)C2)c1 [Example 187] | 10 to 50 nM
CNc1cncc(C(=O)N2C[C@H](Nc3c(C(=O)N4C[C@H](C)O[C@@H](C)C4)cc(Br)cc3[N+](=O)[O-])C(C)(C)C2)c1 [Example 189] | 10 to 50 nM
COCCN1CCN(C(=O)c2cc(Br)cc([N+](=O)[O-])c2N[C@H]2CN(C(=O)c3cncc(I)c3)CC2(C)C)CC1 [Example 190] | 10 to 50 nM
CNc1cncc(C(=O)N2C[C@H](Nc3c(C(=O)N4CCN(CCOC)CC4)cc(Br)cc3[N+](=O)[O-])C(C)(C)C2)c1 [Example 191] | 10 to 50 nM
O=C(c1cncc(I)c1)N1C[C@H](Nc2c(C(=O)N3CCC(F)(F)CC3)cc(Br)cc2[N+](=O)[O-])C(F)(F)C1 [Example 192] | 10 to 50 nM
